According to patent US20090192167A1 (priority 2005, published 2009):
Like-named read-outs stand apart in the source and are kept apart here.

How the values were obtained:
Pyricularia oryzae [1] = type: in vivo; details: granule, nursery box, inoculated 30 days after treatment, lesions examined after 7 days
Pyricularia oryzae [2] = type: in vivo; details: granule, submerged application, inoculated 14 days after treatment, lesions examined after 7 days
Chilo suppressalis [3] = details: in vivo
Pyricularia oryzae [4] = type: in vivo; details: inoculated 1 day after spraying, lesions counted after 7 days
Chilo suppressalis [5] = details: in vivo; remark: listed apart in the source
Chilo suppressalis [6] = details: in vivo; remark: listed apart in the source
[7] = amount of treated chemical 100 gai/box
[8] = amount of treated chemical 150 gai/box
[9] = amount of treated chemical 60 gai/box

SMILES: Cc1cc(C(F)(C(F)(F)F)C(F)(F)F)cc(C)c1NC(=O)c1cccc(NC(=O)c2cccnc2Cl)c1 [Compound 106, N-(2,6-dimethyl-4-heptafluoroisopropyl)phenyl 3-[(2-chloropyridine-3-yl)carbonylamino]benzamide]
- Pyricularia oryzae Control value (Pyricularia oryzae [1]; 5 gai/box): 4
- Pyricularia oryzae Control value (Pyricularia oryzae [2]; 300 (gai/box)): 3

SMILES: O=C(Nc1cccc(C(=O)Nc2c(Br)cc(C(F)(C(F)(F)F)C(F)(F)F)cc2SC(F)(F)F)c1)c1ccccc1 [Compound 210]
- Mortality (%) (Chilo suppressalis [3]): 95%
- Pyricularia oryzae Control value (Pyricularia oryzae [4]; [7]): 0

SMILES: Cc1cc(C(F)(C(F)(F)F)C(F)(F)F)cc(C)c1NC(=O)c1cccc(NC(=O)c2ccccc2)c1F [Compound 601, N-(2,6-dimethyl-4-heptafluoroisopropyl)phenyl 3-(benzoylamino)-2-fluorobenzamide]
- Mortality (%) (Chilo suppressalis [3]): 95%
- Pyricularia oryzae Control value (Pyricularia oryzae [4]; [7]): 2

SMILES: Cc1cc(C(F)(C(F)(F)F)C(F)(F)F)cc(C)c1NC(=O)c1cccc(NC(=O)c2cccnc2Cl)c1F [Compound 639]
- Pyricularia oryzae Control value (Pyricularia oryzae [1]; 5 gai/box): 5
- Pyricularia oryzae Control value (Pyricularia oryzae [2]; 300 (gai/box)): 0

SMILES: Cc1cc(C(F)(C(F)(F)F)C(F)(F)F)cc(C)c1NC(=O)c1cccc(N(C)C(=O)c2ccccc2)c1F [Compound 1208]
- Mortality (%) (Chilo suppressalis [3]): 95%
- Pyricularia oryzae Control value (Pyricularia oryzae [4]; [7]): 5

SMILES: Cc1cc(C(F)(C(F)(F)F)C(F)(F)F)cc(C)c1NC(=O)c1cccc(N(C)C(=O)c2ccc(C#N)cc2)c1F [Compound 1217]
- Pyricularia oryzae Control value (Pyricularia oryzae [1]; 5 gai/box): 0
- Pyricularia oryzae Control value (Pyricularia oryzae [2]; 300 (gai/box)): 5
- Mortality (%) (Chilo suppressalis [5]): 95%
- Mortality (%) (Chilo suppressalis [6]): 95%

SMILES: Cc1cc(C(F)(C(F)(F)F)C(F)(F)F)cc(C)c1NC(=O)c1cccc(N(C)C(=O)c2cccnc2Cl)c1F [Compound 1245]
- Pyricularia oryzae Control value (Pyricularia oryzae [1]; 5 gai/box): 5
- Pyricularia oryzae Control value (Pyricularia oryzae [2]; 300 (gai/box)): 0

SMILES: Cc1cc(C(F)(C(F)(F)F)C(F)(F)F)cc(C)c1NC(=O)c1cccc(N(C)C(=O)c2cccnc2F)c1F [Compound 1246]
- Pyricularia oryzae Control value (Pyricularia oryzae [1]; 5 gai/box): 0
- Pyricularia oryzae Control value (Pyricularia oryzae [2]; 300 (gai/box)): 4

SMILES: Cc1cc(C(F)(C(F)(F)F)C(F)(F)F)cc(C)c1NC(=O)c1cccc(NC(=O)OCC(F)(F)F)c1F [Compound 3000]
- Mortality (%) (Chilo suppressalis [3]): 90%
- Pyricularia oryzae Control value (Pyricularia oryzae [4]; [7]): 3

SMILES: Cc1cc(C(F)(C(F)(F)F)C(F)(F)F)cc(C)c1NC(=O)c1cccc(NC(=O)OC(CF)CF)c1 [Compound 3001]
- Mortality (%) (Chilo suppressalis [3]): 95%
- Pyricularia oryzae Control value (Pyricularia oryzae [4]; [7]): 0

SMILES: Cc1cc(C(F)(C(F)(F)F)C(F)(F)F)cc(C)c1NC(=O)c1cccc(NC(=O)OCCCl)c1F [Compound 3002]
- Mortality (%) (Chilo suppressalis [3]): 90%
- Pyricularia oryzae Control value (Pyricularia oryzae [4]; [7]): 3

SMILES: Cc1ccc(C(=O)NCC(NC(=O)OC(C)C)C(C)C)cc1 (stereo not shown) [Compound 3003]
- Pyricularia oryzae Control value (Pyricularia oryzae [1]; 15 gai/box): 100
- Pyricularia oryzae Control value (Pyricularia oryzae [2]; 450 (gai/box)): 100
- Mortality (%) (Chilo suppressalis [3]): 0%
- Pyricularia oryzae Control value (Pyricularia oryzae [4]; [8]): 100
- Mortality (%) (Chilo suppressalis [5]): 0%
- Mortality (%) (Chilo suppressalis [6]): 0%

SMILES: Cc1ccc(C(=O)NCC(NC(=O)OC(C)C)C(C)(C)C)cc1 (stereo not shown) [Compound 3004]
- Pyricularia oryzae Control value (Pyricularia oryzae [1]; 15 gai/box): 100
- Pyricularia oryzae Control value (Pyricularia oryzae [2]; 450 (gai/box)): 100
- Mortality (%) (Chilo suppressalis [3]): 0%
- Pyricularia oryzae Control value (Pyricularia oryzae [4]; [8]): 100
- Mortality (%) (Chilo suppressalis [5]): 0%
- Mortality (%) (Chilo suppressalis [6]): 0%

SMILES: CC(C)OC(=O)NC(CNC(=O)c1cc2ccccc2o1)C(C)C (stereo not shown) [Compound 3005]
- Pyricularia oryzae Control value (Pyricularia oryzae [1]; 15 gai/box): 100
- Pyricularia oryzae Control value (Pyricularia oryzae [2]; 450 (gai/box)): 100
- Mortality (%) (Chilo suppressalis [3]): 0%
- Pyricularia oryzae Control value (Pyricularia oryzae [4]; [8]): 100
- Mortality (%) (Chilo suppressalis [5]): 0%
- Mortality (%) (Chilo suppressalis [6]): 0%

SMILES: Cc1ccc(C(=O)NCC(NC(=O)OCC(F)(F)F)C(C)C)cc1 (stereo not shown) [Compound 3006]
- Pyricularia oryzae Control value (Pyricularia oryzae [1]; 7.5 gai/box): 100
- Pyricularia oryzae Control value (Pyricularia oryzae [2]; 225 (gai/box)): 100
- Mortality (%) (Chilo suppressalis [3]): 0%
- Pyricularia oryzae Control value (Pyricularia oryzae [4]; [9]): 100
- Mortality (%) (Chilo suppressalis [5]): 0%
- Mortality (%) (Chilo suppressalis [6]): 0%

SMILES: Cc1ccc(C(=O)NCC(NC(=O)OCC(F)(F)F)C(C)(C)C)cc1 (stereo not shown) [Compound 3007]
- Pyricularia oryzae Control value (Pyricularia oryzae [1]; 7.5 gai/box): 100
- Pyricularia oryzae Control value (Pyricularia oryzae [2]; 225 (gai/box)): 100
- Mortality (%) (Chilo suppressalis [3]): 5%
- Pyricularia oryzae Control value (Pyricularia oryzae [4]; [9]): 100

SMILES: CC(C)C(CNC(=O)c1cc2ccccc2o1)NC(=O)OCC(F)(F)F (stereo not shown) [Compound 3008]
- Pyricularia oryzae Control value (Pyricularia oryzae [1]; 7.5 gai/box): 100
- Pyricularia oryzae Control value (Pyricularia oryzae [2]; 225 (gai/box)): 100
- Mortality (%) (Chilo suppressalis [3]): 0%
- Pyricularia oryzae Control value (Pyricularia oryzae [4]; [9]): 100
- Mortality (%) (Chilo suppressalis [5]): 0%
- Mortality (%) (Chilo suppressalis [6]): 0%
